Patent US5380825A (Sigma Chemical Company, priority 1991, dated 1995)
Values after ≈ are worked out from the molar mass of the structure shown. Values belong to the compound of their own block, whether it stands above or below them.

Experiments:
[1] = system: antibodies from Rabbit No. 2 produced in response to immunization with AZT-3-V:BSA; assay: AZT microtiter plate enzyme immunoassay (EIA); assay type: binding; settings: tracer AZT-3-V:HRPO; for Net Absorbence (B): zero standard 0.367
Procedure: (§1) The immunogen (1 mg in 1 ml) was emulsified with an equal volume of Freund's Complete Adjuvant and injected intradermally into each of two female albino rabbits. The process was repeated in two weeks. Two weeks later, monthly subcutaneous booster injections were begun with 0.5 mg in 0.5 ml of the immunogen and 0.5 ml of Freund's Incomplete Adjuvant per animal. The rabbits were bled biweekly by a marginal ear vein technique beginning six weeks after the primary immunization. The blood collected was refrigerated, allowing clots to form, and the supernatant (antiserum) retained. The antiserum from each rabbit was collected and stored, either at -20° C. without preservative, or at 4° C. after addition of sodium azide to a final concentration of 0.1%. The same schedule was followed for each immunogen. Rabbits immunized produced antibodies to AZT.
To each well of a 96 well microtiter plate was added 100 ul of diluted rabbit antibodies (Example 45) to AZT-3-V:BSA prepared via active ester (Example 4) previously fractionated with ammonium sulfate. After incubation overnight, the plate was washed and 300 ul of diluted normal rabbit serum was added to each well to block any unbound sites on the plastic surface of the microtiter plate. The plate was again washed and the excess moisture removed. […] The plate was incubated for 60 minutes at room temperature. The plate was then washed and 300 ul of diluted o-phenylenediaminehydrogen peroxide substrate solution was added to each well. The color was allowed to develop for 90 minutes at room temperature in the dark. Absorbances were then measured spectrophotometrically for each well.

[2] = at high dosage levels; cited from earlier work
AZT antibodies [3] = assay: Immunological activity / tracer performance in FPIA for AZT (qualitative); assay type: binding; settings: qualitative
Procedure: (§2) An equal volume of precipitation reagent was added per microcentrifuge tube. The tubes were centrifuged at greater than 9,000×g for 1 minute.
(§3) (2) A 17.5 ul sample of each serum extract was brought to approximately pH 7-8 by the addition of buffer.
(§4) (4) After an appropriate incubation time, the polarization of each reaction mixture was determined using a polarization spectrofluorimeter.

[4] = system: antibodies from Rabbit No. 1 produced in response to immunization with AZT-3-V:BSA; assay: Fluorescence polarization immunoassay (FPIA) for AZT, standard curve; assay type: binding; settings: tracer AZT-3-B:FAM Isomer I, zero standard 166
Procedure: as §1
(§5) Fluorescence Polarization Immunoassay for AZT
The following procedure illustrates the use of various materials of the invention in a preferred FPIA method.
as §2, §3, §4

[5] = major metabolite of AZT; cited from earlier work
Solubility in water = assay type: physicochemical; settings: UV, assuming E^M275 = 8600, read-out: concentration of saturated aqueous solution
Procedure: A mixture of 25 mg AZT-3-AA (Example 19), 15 mg NOS and 15 mg DCC in 1 ml of THF was stirred two hours at room temperature, then a solution of 25 mg TME in 500 ul of THF/MeOH (9+1) was added and the mixture was stirred overnight at room temperature. The suspension was filtered through a PTFE membrane to remove dicyclohexylurea and chromatographed by TLC on silica gel-F 250 um using the solvent system CHCl3 /MeOH/HOAc (90+10+1). Three major UV-absorbing bands were located: TME, Rf =0.13, ninhydrin positive, Pauly positive, migrates with TME reference; NOS, Rf =0.33, ninhydrin negative, Pauly negative, migrates with NOS reference; and product, Rf =0.40, ninhydrin negative, Pauly positive. The band corresponding to the product was scraped, eluted with MeOH and rechromatographed on RPF 250 um using the solvent system MeOH/H2 O/HOAc (33+66+2) to remove a trace of NOS. In this second chromatography system, Rf =0.42 (product) and Rf =0.81 (NOS). The product was eluted with MeOH/THF (1+1). A saturated aqueous solution was prepared and filtered through a PTFE membrane and stored at -20° C. The saturated aqueous solution was characterized by a UV wavelength scan and concentration of the solute was calculated to be 47 ug/ml, assuming E^M275 =8600.

antibody to AZT = assay: Nephelometric inhibition immunoassay (NIA) for AZT; assay type: binding; settings: qualitative
Procedure: Typically this conjugate is prepared from a high molecular weight carrier such as horse apoferritin or serum proteins.

[6] = system: antisera to AZT, Rabbit 1 (immunized with AZT-3-V:BSA); assay: FPIA comparison of tracers, antiserum of Rabbit 1 (Table 1); assay type: binding; settings: for Polarization Units (P × 1000): 1 pmole of tracer, antiserum at the given titer; for ED50 AZT: concentration of AZT giving 50% reduction in polarization of this tracer relative to 0 tube; for Titer [Ab]: dilution of antiserum required to obtain the given polarization units with 1 pmole of tracer
Procedure: as §1, §5, §2, §3, §4
(§6) As further illustration of the invention polyclonal antibodies were raised in two rabbits by immunization with the conjugate of Example 4 (AZT-3-V:BSA) as is more fully described in Example 45 and stored at 4° C. with 0.1% sodium azide. A number of tracers were then compared as to their performance in FPIA using the antisera raised from two rabbits.
(§7) ^(1) TITER was defined as the dilution of antiserum (i.e., [Ab])
(§8) required to obtain the given polarization units (P × 1000) with 1
(§9) required to give a 50% reduction in polarization relative to a control (0
(§10) tube) containing no unlabeled AZT.

[7] = system: antisera to AZT, Rabbit 2 (immunized with AZT-3-V:BSA); assay: FPIA comparison of tracers, antiserum of Rabbit 2 (Table 1); assay type: binding; settings: for Polarization Units (P × 1000): 1 pmole of tracer, antiserum at the given titer; for ED50 AZT: concentration of AZT giving 50% reduction in polarization of this tracer relative to 0 tube; for Titer [Ab]: dilution of antiserum required to obtain the given polarization units with 1 pmole of tracer
Procedure: as §1, §5, §2, §3, §4, §6, §7, §8, §9, §10

AZT antibodies [8] = assay: Fluorescence quenching technique for assaying AZT; assay type: binding; settings: qualitative
From the text: Fluorescence quenching and fluorescence enhancement immunoassays are other homogeneous fluorescent assays based on the observation that some antibodies, upon binding to a fluorescent molecule, cause either an enhancement or decrease in fluorescence.

SMILES: Cc1cn([C@H]2C[C@H](N=[N+]=[N-])[C@@H](CO)O2)c(=O)[nH]c1=O (single isomer, unassigned) [AZT, 3'-azido-3'-deoxythymidine]
- % B/Bo ([1]; AZT 0.1 ng/ml): 88%
- Net Absorbence (B) ([1]; AZT 0.1 ng/ml): 0.323
- % B/Bo ([1]; AZT 0.4 ng/ml): 74%
- Net Absorbence (B) ([1]; AZT 0.4 ng/ml): 0.273
- % B/Bo ([1]; AZT 1.6 ng/ml): 56%
- Net Absorbence (B) ([1]; AZT 1.6 ng/ml): 0.205
- % B/Bo ([1]; AZT 6.3 ng/ml): 41%
- Net Absorbence (B) ([1]; AZT 6.3 ng/ml): 0.149
- % B/Bo ([1]; AZT 25.3 ng/ml): 23%
- Net Absorbence (B) ([1]; AZT 25.3 ng/ml): 0.085
- % B/Bo ([1]; AZT 101.1 ng/ml): 12%
- Net Absorbence (B) ([1]; AZT 101.1 ng/ml): 0.044
- side effects [2]: serious side effects at high dosage levels
- immunological activity in FPIA for AZT (AZT antibodies [3]): immunologically active
- Polarization Units (P × 1000) ([4]; AZT 0.2 uM): 155 P × 1000
- Polarization Units (P × 1000) ([4]; AZT 0.6 uM): 141 P × 1000
- Polarization Units (P × 1000) ([4]; AZT 1.7 uM): 118 P × 1000
- Polarization Units (P × 1000) ([4]; AZT 5.0 uM): 87 P × 1000
- Polarization Units (P × 1000) ([4]; AZT 14.7 uM): 61 P × 1000

SMILES: Cc1cn([C@H]2C[C@H](N=[N+]=[N-])[C@@H](CO[C@@H]3O[C@H](C(=O)O)[C@@H](O)[C@H](O)[C@H]3O)O2)c(=O)[nH]c1=O [AZT-5'-glucuronide]
- pharmacological activity [5]: believed to be pharmacologically inactive

- solubility (Solubility in water): 47 µg/mL (≈ 93.5 µM)
SMILES: COC(=O)C(Cc1ccc(O)cc1)NC(=O)Cn1c(=O)c(C)cn([C@H]2C[C@H](N=[N+]=[N-])[C@@H](CO)O2)c1=O (stereo partly shown) [Example 24, 2-[2-(3'-azido-3'-deoxythymid-3-yl)-acetamido]-3-(4-hydroxyphenyl)-propionic acid methyl ester]
- immunological activity in FPIA for AZT (AZT antibodies [3]): immunologically active
- immunological activity in NIA for AZT (antibody to AZT): immunologically active

SMILES: COc1nc(NCCCn2c(=O)c(C)cn([C@H]3C[C@H](N=[N+]=[N-])[C@@H](CO)O3)c2=O)nc(Nc2ccc3c(c2)C(=O)OC32c3ccc(O)cc3Oc3cc(O)ccc32)n1 [Example 32, 3-[3-[4-(fluoresceinyl-5)-6-methoxy-s-triazin-2-yl]-aminopropyl]-3'-azido-3'-deoxythymidine]
- Polarization Units (P × 1000) [6]: 179 P × 1000
- ED50 AZT [6]: 3.1 µg/mL (≈ 3.98 µM)
- Titer [Ab] [6]: 550
- Polarization Units (P × 1000) [7]: 170 P × 1000
- ED50 AZT [7]: ~ 8.0 ug/ml
- Titer [Ab] [7]: 183
- performance as tracer for determination of AZT by FPIA (AZT antibodies [3]): satisfactory tracer

SMILES: Cc1cn([C@H]2C[C@H](N=[N+]=[N-])[C@@H](CO)O2)c(=O)n(CCCNc2nc(Cl)nc(Nc3ccc4c(c3)C(=O)OC43c4ccc(O)cc4Oc4cc(O)ccc43)n2)c1=O [Example 34, 3-[3-[4-(Fluoresceinyl-5)-6-chloro-s-triazin-2-yl]-aminopropyl]-3'-azido-3'-deoxythymidine]
- Polarization Units (P × 1000) [6]: 171 P × 1000
- ED50 AZT [6]: 2.0 µg/mL (≈ 2.55 µM)
- Titer [Ab] [6]: 500
- Polarization Units (P × 1000) [7]: 168 P × 1000
- ED50 AZT [7]: 4.0 µg/mL (≈ 5.11 µM)
- Titer [Ab] [7]: 140
- immunological activity in FPIA for AZT (AZT antibodies [3]): immunologically active

SMILES: Cc1cn([C@H]2C[C@H](N=[N+]=[N-])[C@@H](COC(=O)CCC(=O)Nc3ccc4c(c3)C(=O)OC43c4ccc(O)cc4Oc4cc(O)ccc43)O2)c(=O)[nH]c1=O [Example 41, 5-[(3'-azido-3'-deoxythymid-5'-yl)-succinamido]-fluorescein]
- immunoactivity by fluorescence quenching technique (AZT antibodies [8]): Immunoactivity of the product was demonstrated

SMILES: COC(=O)C(Cc1ccc(O)cc1)NC(=O)CCC(=O)OC[C@H]1O[C@@H](n2cc(C)c(=O)[nH]c2=O)C[C@@H]1N=[N+]=[N-] (stereo partly shown) [Example 43, 2-[(3'-azido-3'-deoxythymid-5'-yl)-succinamido]-3-(4-hydroxyphenyl)-propionic acid methyl ester]
- immunological activity in FPIA for AZT (AZT antibodies [3]): immunologically active
- immunological activity in NIA for AZT (antibody to AZT): immunologically active
